According to patent US3980794A, “Method for promoting growth of poultry with 3-(5-nitro-2-imidazolyl)pyrazoles” (Eli Lilly and Company, priority 1975, dated 1976):
Values after ≈ are worked out from the molar mass of the structure shown.

Legend:
[1] = Growth promotion efficacy in broiler chicks (Experiment 7); format: in vivo; settings: for F/G (feed conversion) / Wt. Gn. (average weight gain) / % Impr. in feed conversion / % Impr. in weight gain: 21 days; for % Impr. in feed conversion / % Impr. in weight gain: compared to contemporary control
From the text: 5-Amino-1-methyl-3-(1-methyl-5-nitro-2-imidazolyl)pyrazole-4-carbonitrile, compound 1, was fed to broiler chicks to evaluate its growth promotion efficacy.
The compound was fed at levels of 10, 25 and 50 g./ton of typical broiler rations (set forth below) to a total of 120 replicates of 8 birds each in four time-replicated studies.
All the birds in the tests were pre-brooded for seven days in floor pens before being placed on treatment. The treatment period extended for 21 days in starter batteries. Feed and water were provided ad libitum at all times. A nontreated feed was fed during the pre-brood period.
The results of the studies are presented in Chart 8. In the chart, column 1 gives the identification of the test compound; column 2, the level of administration of the test compound in the feed; column 3, the number of replicates per treatment; column 4, the average weight gain in grams; column 5, the percent improvement in weight gain; column 6, the feed conversion, which is the ratio of the feed consumed (F) to the weight gained (G); and column 7, the percent improvement in feed conversion.
All 10 and 50 g. data were obtained using Diet 1. The 25 g. data were obtained using Diet 1 (25%) and Diet 2 (75%).

Treponema hyodysenteriae = test: In vitro activity against Treponema hyodysenteriae (Experiment 8); format: cell-based; settings: Brachyspira hyodysenteriae; repeat test, doubling dilutions 100 to 0.048 mcg./ml.; read-out: minimum inhibitory concentration (MIC)
Description: A number of representative compounds, namely, 1, 5, 6, 7, 12, 13D, 14, and 18, were tested for their in vitro activity against Treponema hyodysenteriae. The treponema were propagated on blood agar plates. Each plate which was prepared contained 20 ml. of trypticase soy agar (Baltimore Biological Laboratory [BBL]) with 5.0 g./l. of yeast extract (Difco) and 5 percent sterile defibrinated horse blood. The plates were sterile plastic 15 × 100 mm. petri plates. Incubation was carried out at 37°C. for 4 days under anaerobic conditions using the BBL Gas Pak system.
The concentrations of test compounds in this initial test were prepared in dilutions ranging from 2000 mcg./ml. to 7.8 mcg./ml. The test procedure was carried out in the following manner. Five ml. of a twenty-fold concentration in tryptose broth (Difco) of each filter-sterilized test compound dilution was mixed in a series of flasks containing 90 ml. of melted trypticase soy agar with yeast extract. Five ml. of horse blood was then added per flask. The contents of these flasks were then used to prepare a series of blood agar plates in doubling decreasing dilutions ranging from 100 mcg./ml. to 0.39 mcg./ml.
The treponema for inoculation of these plates were obtained by adding 3.0 ml. of sterile tryptose broth to the surface of a plate on which the treponema had been propagated. […]

[2] = tested on: Pasteurella multocida and Pasteurella hemolytica; test: In vivo activity against pasteurellosis in calves (Experiment 10)
Description: The in vivo activity of compound 1 against pasteurellosis in calves was determined in the following manner. Twelve calves weighing approximately 180 pounds each were obtained from a commercial source and were brought to the research facility where they were weighed individually and identified by ear tag. The calves were divided into two groups of six calves each, and two hundred thousand ascaris ova were administered to each calf seven days prior to the pasteurella challenge. […] The compound was administered orally in two equal doses of 2000 mg. each, using capsules containing 500 mg. of compound each. The actual dosage of the test compound ranged from about 45 to about 55 mg. per kilo per head per day. The treatment was initiated one day prior to the pasteurella challenge and was continued daily for a total of seven days. […] The pasteurella challenge was prepared using three isolates of Pasteurella multocida and three isolates of Pasteurella hemolytica, all of bovine origin. The isolates were grown in tryptose culture for about 18 hours and then mixed in equal parts in a challenge cocktail. Approximately 0.1 ml. was used to aerosol-expose each calf. This exposure was carried out by placing a plastic bag over the head of each calf and running the aerosol into the bag. The pasteurella challenge was timed to coincide with the period of mechanical injury to the lung tissue caused by the […] larvae migration. […] All the calves were sacrificed on the tenth day post-pasteurella challenge, and the extent of pneumonic lesions in the lung tissues noted. Thus, after the calves were sacrificed, the lungs were removed from each calf and examined for lesions grossly. In addition, attempts were made to re-isolate pasteurella from the pneumonic lung tissue.

[3] = 25 g./t. fed, Diet 1 (25%) and Diet 2 (75%)

Cn1nc(-c2ncc([N+](=O)[O-])n2C)c(C#N)c1N [Compound 1, 5-Amino-1-methyl-3-(1-methyl-5-nitro-2-imidazolyl)pyrazole-4-carbonitrile]
F/G (feed conversion) ([1]; 10 g./t. fed, Diet 1): 1.580
Wt. Gn. (average weight gain) ([1]; 10 g./t. fed, Diet 1): 580 g
% Impr. in feed conversion ([1]; 10 g./t. fed): 2.35%
% Impr. in weight gain ([1]; 10 g./t. fed): 4.50%
F/G (feed conversion) [1, 3]: 1.751
Wt. Gn. (average weight gain) [1, 3]: 468 g
% Impr. in feed conversion ([1]; 25 g./t. fed): 4.68%
% Impr. in weight gain ([1]; 25 g./t. fed): 6.12%
F/G (feed conversion) ([1]; 50 g./t. fed, Diet 1): 1.578
Wt. Gn. (average weight gain) ([1]; 50 g./t. fed, Diet 1): 564 g
% Impr. in feed conversion ([1]; 50 g./t. fed): 4.54%
% Impr. in weight gain ([1]; 50 g./t. fed): 3.87%
growth promoter effectiveness ([1]; oral to chicks, compound 1 at about 10 to about 50 g. per ton of feed): effective as a growth promoter
MIC (Treponema hyodysenteriae): 0.097 µg/mL (≈ 0.392 µM)
pasteurella colonies in lungs of a third treated calf ([2]; at necropsy): only three pasteurella colonies
calves with moderate number of pasteurella colonies in lungs ([2]; at necropsy, six calves): Another treated calf
calves with numerous colonies of pasteurella in lungs ([2]; at necropsy, six calves): One of the treated calves
calves yielding no pasteurella from the lung tissue ([2]; at necropsy, six calves): Three of the treated calves
treatment response (control of lung lesions and reisolation of pasteurella) ([2]; oral, about 45 to about 55 mg. per kilo per day): All the calves treated with compound 1 showed a treatment response
body temperature ([2]; oral, about 45 to about 55 mg. per kilo per head per day, versus infected control): considerably lower
calves with moderate pneumonic lung lesion ([2]; oral, tenth day post-challenge, six calves): A single treated calf
